Source: patent publication US7422868B2, “Microbial ATP extraction and detection system” (Promega Corporation, priority 2004, dated 2008)

How the values were obtained:
P. aeruginosa = details: CDTA added at t=12 minutes, final 20 mM, to mixture with 20 mM MgCl2
Protocol: Either 100 μl of bacterial culture or 100 μl of a 1×10^−9 M ATP stock (control) was added to 100 μl of the reconstitution reagent and luminescence was measured periodically over a 35 minute time period. The microbial cultures were tested at approximately 10^6 cells per well. Additional CDTA was added at t=12 minutes to each of the samples (final concentration=20 mM CDTA).

[1] = test system: Pseudomonas aeruginosa (ATCC27853); assay: Effect of alternate divalent cations on ATP extraction and detection; assay type: cell-based; details: high (20 mM) divalent cation concentration; approximately 1×10^6 cells per well
Protocol: To evaluate the effects of alternate divalent cations on ATP extraction and detection at low (0.2 mM) and high (20 mM) divalent cation concentrations, Pseudomonas aeruginosa (ATCC27853) was grown in Mueller Hinton II (MH II) Broth at 37° C. overnight. The overnight culture was diluted 50-fold in fresh MH II Broth and then incubated for several hours to reach log phase. Cells were diluted to approximately 1×10^6 cells per well.

S. aureus ATCC 25923 = assay: Bioluminescent detection of bacterial growth as a function of antibiotic dose; assay type: cell-based; details: 19 hours of incubation at 37° C.; ATP detection assay
Protocol: Four bacterial strains were used to evaluate the relationship between microbial cell number and luminescence. Bacterial strains Escherichia coli (ATCC25922), Staphylococcus aureus (ATCC25923), Pseudomonas aeruginosa (ATCC27853) and Bacillus cereus (ATCC10987) were grown in Mueller Hinton II (MH II) Broth at 37° C. overnight. The overnight culture was diluted 50-fold in fresh MH II Broth and then incubated for several hours to reach log phase. Samples of the culture were serially diluted using MH II Broth in a 96-well plate. […] Luminescence was recorded on a Veritas™ Microplate Luminometer from Turner Biosystems (Sunnyvale, Calif.). S. aureus ATCC 25923 strain was grown in MH II Broth at 37° C. overnight. The overnight culture was diluted 100-fold in fresh MH II Broth and used as inoculum for the antimicrobial screen. Working stocks (50×) of LOPAC compounds and standard antibiotics were prepared in DMSO. Each well of the 96-well multiwell plate contained 245 μl of the inoculum and 5 μl of the 50× working stock. […] One hundred microliters of the culture was taken from each well, and the luciferase detection assay was performed as described in Example 9. Luminescence was measured using a Veritas™ Microplate Luminometer from Turner Biosystems (Sunnyvale, Calif.). […] Luminescence was recorded on a Veritas™ Microplate Luminometer from Turner Biosystems (Sunnyvale, Calif.).

SMILES	effect on ATP detection (luminescence) [1]	also measured
O=C(O)CN(CC(=O)O)C1CCCCC1N(CC(=O)O)CC(=O)O (stereo not shown) [CDTA, 1,2-Cyclohexanedinitrilotetraacetic acid]		neutralization of inhibitory divalent cation effects on ATP detection (luminescence) (P. aeruginosa): capable of neutralizing the inhibitory effects of divalent cations
[Ca+2].[Cl-].[Cl-] [Ca^2+, CaCl2]	impede ATP detection	
[Cl][Mn][Cl] [Mn^2+, MnCl2]	impede ATP detection	
Cc1onc(-c2ccccc2)c1C(=O)N[C@@H]1C(=O)N2[C@@H]1SC(C)(C)[C@@H]2C(=O)O [oxacillin]		relative percentage of RLU compared to the no-oxacillin control (S. aureus ATCC 25923): dose-dependent effect
